# Results reported in patent EP0546533A2, “Medical use of kininogenase” (SANWA KAGAKU KENKYUSHO CO., LTD., priority 1991, dated 1993).
# Structures can show the parent of a compound that is named as a salt. Non-standard residues stand in square brackets, D forms with d. Residues, ends and D or L forms follow the SMILES beside them. *: point of attachment. pNA = O=[N+]([O-])c1ccc(N*)cc1; AMC = Cc1cc(=O)oc2cc(N*)ccc12
# Experiments:
# [1] = molecular target: T1, kininogenase extracted and purified from human urine (original solution) (Homo sapiens, UniProt P06870); assay: Enzymatic dynamic constants with lower molecule synthetic substrates; format: biochemical; conditions: synthetic substrate
# T1 construct: from tissue; host or cells: human urine (pooled, healthy males)
# T1 sequence (P06870 25-262): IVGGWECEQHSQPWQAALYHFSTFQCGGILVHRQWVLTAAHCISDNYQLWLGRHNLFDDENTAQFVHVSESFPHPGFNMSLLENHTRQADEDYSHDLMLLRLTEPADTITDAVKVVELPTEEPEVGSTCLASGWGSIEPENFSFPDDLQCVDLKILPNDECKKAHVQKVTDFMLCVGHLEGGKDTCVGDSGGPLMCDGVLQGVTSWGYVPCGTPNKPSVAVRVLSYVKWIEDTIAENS
# Text: In the next place, An ability of the kininogenase for making free the kinin was periodically checked by using canine lower molecule kininogen, human lower molecule kininogen and human higher molecule kininogen in various concentration, as substrates to calculate enzymatic dynamic constants of the kininogenase.
# An activity of the kininogenase to decomposition of lower molecule synthetic substrates was checked as in said Item (A) to calculate enzymatic dynamic constants of the kininogenase.
# [2] = system: model animal with hypoxia; assay: Influence to model animal with hypoxia (5% O2 breathing); format: in vivo, New Zealand white rabbits
# Experimental: Each of female New Zealand white rabbits (body weight of about 3kg) were anethetized with pentbarbital-Na, and a tube was inserted, at once, into their trachea to cause an adjusted breathing with air through a respirator.
# After intravenously injecting 0.5mg/kg of tubocurarine chloride to cause an amyotonia, the animal was transferred to a fixing device to cause an orientation of her brain to peel bellies along a median line in its vertex and to form two apertures or windows of 0.5 x 0.5cm at right front portion and 1.0 x 0.5cm at right rear portion of the skull. To the front window, a silver ball electrode was set to measure brain-wave in the cortex, and a local blood flow in the cortex and P02 in brain were measured by utilizing the rear window. Number of heat beats was measured by making trigger R-wave of the […]. These parameters were recorded by feeding the same to a polygraph, crossed thermocouple and recticorder.
# After stabilized of each parameters, the air from the respirator was changed to 5% 02 and at once, drugs given later was intravenously injected to continue the experiment for 10 minutes.
# • (A) Control group (n = 3) : • Administrated 3.3ml of phosphate buffer (0.05M, pH 7) for 30 minutes at rate of 0.11 ml/min. • (B) 5.0 x 10-^3 PNA units/kg Administration group (n = 3) : • Administrated 3.3ml of solution for 30 minutes at rate of 0.11 ml/min., which solution was prepared by diluting a kininogenase solution of 5.0 x 10-^2 PNA units/ml with phosphate buffer (0.05M, pH 7) by 10 folds. • (C) 2.5 x 10-^3 PNA units/kg Administration group (n = 3) : • Administrated 3.3ml of solution for 30 minutes at rate of 0.11 ml/min., which solution was prepared by diluting a kininogenase solution of 2.5 x 10-^2 PNA units/ml with phosphate buffer (0.05M, pH 7) by 10 folds. • (D) 1.5 x 10-^3 PNA units/kg Administration group (n = 3) : • Administrated 3.3ml of solution for 30 minutes at rate of 0.11 ml/min., which solution was prepared by diluting a kininogenase solution of 1.5 x 10-^2 PNA units/ml with phosphate buffer (0.05M, pH 7) by 10 folds. • (E) Citicholine (100mg/kg) administration group (n = 3) : • Administrated 3.3ml of a solution for 30 minutes at rate of 0.11 ml/min., which solution was prepared by taking 4ml of Nicholine injection solution (250mg/2ml), and diluting the same with phosphate buffer (0.05M, pH 7) to make the drug concentration to 100mg/kg. • (F) Citicholine (10mg/kg) administration group (n = 3) : • Administrated 3.3ml of a solution for 30 minutes at rate of 0.11 ml/min., which solution was prepared by taking 2ml of Nicholine injection solution (100mg/2ml), and diluting the same with phosphate buffer (0.05M, pH 7) to make the drug concentration to 10mg/kg. • (G) Nicardipine (4a g/kg) administration group (n = 3) : • Taking 10mg of Nicardipine, and diluting the same with saline to make the drug concentration to 4µ g/kg to administrate 0.1 ml/kg for 20 seconds.
# A ratio of change was calculated on the number of heart beats, and an amount of change was calculated on the P02 in brain and local blood flow in brain. The brain-wave was analyzed with an analyzer (Type ATAC-450 marketed by Japan Photoelectric Co., Ltd.) to print out results. A statistic inspection or examination was carried out with use of a program of FM 11 marketed by Fujitu Co., Ltd. and judged as there is a significant difference, when P value is 0.05 or less in Student's t-test.
# brain in ischemic state = assay: Cerebral ischemia by ligation of vertebral and common carotid arteries, then release; format: in vivo, rabbit
# Experimental: Both of side vertebral arteries of a healthy rabbit were permanently ligated, both of the common carotid arteries were ligated for 40 minutes to make the brain in ischemic state, and then released the ligation of the common carotid arteries to observe a local blood flow and brain-wave in cerebral cortex portion and to measure concentrations of ATP and lactate in the cortex portion, at the time lapsed 15 minutes from the release of blood flow in the common carotid arteries. Following drugs were administrated in following manner. Citicholine : • Intravenously administrated for 30 minutes from 15 minutes before the ligation of common carotid arteries and at a dose of 100mg/kg. Nicardipine : • Rapidly administrated into an upper portion of small intestine at the time of 15 minutes before the ligation of common carotid arteries.
# [3] = system: model animal with cerebral infarction; assay: Cerebral circulation and metabolism in cerebral infarction model (micro-glass bead injection); format: in vivo, rabbit
# Experimental: A micro-glass bead was injected into right hemicerebrum of an anethetized healthy rabbit to prepare a model animal with cerebral infarction. After administration of a drug, local blood flow (in cortex portion), micro-circulation in cerebral pia leptmeninges, distribution of cerebral blood flow and concentrations of P02, ATP, lactate, pyruvate, glucose and glucose-6-phosphate were measured. The measurement of biochemical substances was carried out after lapsed 60 minutes from the administration of the drug.
# A change in diameter arterioles in cerebral pia leptmeninges was observed, as to blood vessels having diameters of >100, >50 to <100 and <50u m, under microscope and according to Cranial window method.
# [4] = system: region occurred a cerebral infarction; assay: Influence to region of cerebral infarction 24 hours after glass bead injection; format: in vivo, rabbit; conditions: 100mg/kg, sustaining administration for 30 minutes
# Experimental: With use of model animals as in Pharmacological Test Example 4, an influence of a drug to region occurred a cerebral infarction at the time after lapsed 24 hours from the injection of glass bead was checked.
# [5] = system: model animal destroyed in its internal capsule; format: in vivo, New Zealand white rabbit; conditions: citicholine 100mg/kg i.v. for 30 minutes
# Text: An influence of kininogenase to an improvement in an arousal reaction of brain wave in cerebral cortex was checked by selecting a rabbit as a test animal, electrically canterigating an internal capsule to prepare a model animal with symptoms similar to a person caused a cerebral hemorrhage, and administrating the drug, since the destruction of internal capsule gives a partial obstacle to an invigoration system in ascending rectacular region, which has been said as having a close relation with the arousal reaction of brain-wave in cortex.
# A cannula was fitted in an auricle vein of a female New Zealand white rabbit to anethetize the animal by intravenously administrating pentbarbital-Na (30mg/kg). […] A concentration of PC02 in the artery blood was periodically measured by a blood gas analyzer to adjust the respirator, so that the concentration lies in a suitable level of 35 ± 5mmHg). […]
# The brain-wave was monopolarly derived by the screw type electrode to record on a polygraph and also recorded on a magnetic tape by a data recorder. A cardiogram, blood pressure and number of heart beats were recorded on the polygraph through a secondary induction, a pressure transducer and a momentary heart beat recorder which subjects to cause a trigger the R wave for the cardiogram, respectively. […]
# A voltage firstly appeared an arousal reaction, when a voltage for stimulating the rectacular regions shall be raised up with an interval of 5V, and a period of time during which the arousal reaction continues, when the rectacular regions are stimulated with voltage of 4V were defined as the "arousal reaction threshold value" and "arousal reaction sustaining time". The threshold value and sustaining time were visually judged from waves recorded on the charts and shown with units of voltage value (V) and time (sec.). […]
# [6] = system: middle cerebral artery obstructive model animal; assay: Nerve dysfunction, cerebral circulation and brain wave in middle cerebral artery obstruction model; format: in vivo, Japanese monkey; conditions: citicholine 10mg/kg intravenous infusion, 24 hours after obstruction
# Experimental: A tube was fitted to left-outernal carotid artery of anesthetized Japanese monkey and a silicone resin pellet [1 mm (q) ) x 5mm] was inserted into the artery through the tube to prepare a middle cerebral artery obstructive model animal.
# After lapsed 5 minutes from the obstruction of left middle cerebral artery, kininogenase (2.5 x 10-^2 PNA units/kg) or citicholine (10mg/kg) as a test and control drugs was administrated through an intravenous infusion.
# [7] = 5% O2, citicholine 100mg/kg or 10mg/kg i.v., Nicardipine 4µ g/kg
smiles,measurement,setting,value
"CCOC(=O)[C@H](CCCNC(=N)N)NC(=O)c1ccccc1 [BAEE, Benzoyl-L-Arg ethyl ether hydrochloride]",Km,[1],252 µM
same,Vmax,[1],4.23e-05 min⁻¹ mg⁻¹
C[N+](C)(C)CCOP(=O)(O)OP(=O)([O-])OC[C@H]1O[C@@H](n2ccc(N)nc2=O)[C@H](O)[C@@H]1O [Citicholine],Influence to P02 in cerebral cortex (suppression of decrease),[2]; [7],no suppressing effect
same,Influence to local blood flow in cerebral cortex (suppression of increase),[2]; [7],no effect
same,Influence to brain-wave in cortex portion,"[2]; 5% O2, citicholine at dose of 100mg/kg",low-amplitude and quick wave
same,Influence to number of heart beats,"[2]; versus control group, citicholine 100mg/kg or 10mg/kg i.v. for 30 minutes, Nicardipine 4µ g/kg for 20 seconds",no significant difference
same,local blood flow in cerebral cortex portion after release of blood flow,"brain in ischemic state; citicholine 100mg/kg i.v. for 30 minutes, Nicardipine rapidly into upper small intestine, 15 minutes before ligation",did not suppresses the blood flow increase
same,reactivation of flattened brain-wave,"brain in ischemic state; citicholine 100mg/kg i.v., Nicardipine into upper small intestine",not recognized
same,suppression of ATP decrease,[3]; 60 minutes after administration of the drug,did not show the suppress of ATP decrease
same,Blood flow in cerebral cortex portion at the ischemic side,"[3]; Nicardipine 0.5mg/kg rapid into upper small intestine, citicholine 10mg/kg sustaining intravenous",no increase
same,Region of infarction (%),[4]; 24 hours after glass bead injection,30.8 ± 19.8%
same,Inhibition (%),[4]; versus control,-35.9%
same,frequency components of brain wave in cortex portion (quick wave components),[5]; reported as a tendency,reduction of quick wave components is suppressed
same,Sustaining period of time in the arousal reaction,[5]; versus control group,not recognized
same,Threshold value of arousal reaction,[5]; versus control group,No apparent change
same,blood flow in cerebral cortex,[6],no improvement
same,brain wave activities,[6],no improvement
same,neuro symptoms,[6]; versus control group,improvement
"Cc1cc(=O)oc2cc(NC(=O)[C@H](CCCNC(=N)N)NC(=O)[C@H](Cc3ccccc3)NC(=O)[C@@H]3CCCN3)ccc12 [MCA, L-Pro-L-Phe-L-Arg-4-methyl-cumaryl-7-amide] (H-Pro-Phe-Arg-{AMC})",Km,[1],34 µM
same,Vmax,[1],2.57e-05 min⁻¹ mg⁻¹
COC(=O)C1=C(C)NC(C)=C(C(=O)OCCN(C)Cc2ccccc2)C1c1cccc([N+](=O)[O-])c1 (centres unmarked) [Nicardipine],Influence to local blood flow in cerebral cortex (suppression of increase),[2]; [7],no effect
"CC(C)C[C@H](NC(=O)[C@H](N)C(C)C)C(=O)N[C@@H](CCCNC(=N)N)C(=O)Nc1ccc([N+](=O)[O-])cc1 [PNA, H-D-Val-L-Leu-L-Arg-p-nitroanilide dihydrochloride] (H-[dV]-Leu-Arg-pNA)",Km,[1],8.95 µM
same,Vmax,[1],7.8e-06 min⁻¹ mg⁻¹
